Here are results for one molecule from patent US20210260051A1, “COMBINATION OF EZH2 INHIBITOR AND CHECKPOINT THERAPY FOR THE TREATMENT OF CANCER” (Board of Regents, The University of Texas System, priority 2018, published 2021).

Molecules are shown by their SMILES.

The subject of data set [1] is MB49 (bladder) tumor. Put plainly: MB49 tumor-bearing C57BL/6 mice. The class given is in vivo. The text has this:
FIGS. 3A-3F: Blocking expression of EZH2 mediated by anti-CTLA-4 using CPI-1205 increases the effectiveness of anti-CTLA-4 therapy. Tumor growth (FIG. 3A), survival (FIG. 3B) and percentages of intra-tumoral CD4^+CD25^+FoxP3^+ regulatory T cells, CD4^+ICOS^+T-bet^+ and CD8^+IFNγ^+ cells (FIG. 3C) in MB49 tumor-bearing mice treated with vehicle, anti CTLA-4, CPI-1205, or the combination. Tumor growth (FIG. 3D) and percentages of CD4^+IFNγ^+ cells and CD8^+TNFα^+ cells in the lymph nodes (LN) (FIG. 3E) of MB49 tumor-bearing Ezh2^fl/+ and FoxP3^CreEzh2^fl/fl mice treated with anti-CTLA-4 on days 7 and 9. (FIG. 3F) Tumor growth and survival of MB49 tumor-bearing Rag-1^−/− mice treated with vehicle or CPI-1205. Data are representative of three independent experiments (n=10 in each group; one-way ANOVA was used to determine significance between the groups. **p<0.01).
It was evaluated whether the combination of anti-CTLA-4 with CPI-1205 increases the effectiveness of anti-CTLA-4. MB49 (bladder) and B 16-F10 (melanoma) tumor-bearing C57BL/6 mice were treated with anti-CTLA-4 and the EZH2 inhibitor CPI-1205 as monotherapies and in combination.
Cell lines and tumor model. Murine bladder cancer cell line (MB49) were provided by Dr. A. Kamat (at The University of Texas MD Anderson Cancer Center) and murine melanoma cell line B16-F10 was obtained from Dr. I. Fidler (The University of Texas MD Anderson Cancer Center). 2×10^5 (MB49) or 2×10^5 (B16-F10) cells were injected subcutaneously or intradermally respectively, in the flanks of C57BL/6 mice (5 or 10 mice per group). […]
Tissue processing and flow cytometry. […] Staining with intracellular anti-Foxp3 (eBioscience, FJK-16 s), […] (eBioscience, PC61.5), antiKi-67 (eBioscience, SolA15), antiIFN-γ (BioLegend, XMG1.2), anti-TNF-α (BioLegend, MP6-XT22), and anti-EZH2 (Cell Signaling Technology, D2C9) were analyzed by flow cytometry according to the manufacturers’ instructions. Flow cytometry data were acquired on BD LSR II (BD Biosciences) and analyzed using FlowJo software (Tree Star, Ashland, Oreg.).

Data set [2] concerns CXCL9 and CXCL10 in MB49 tumor. Nature of the data set: relative CXCL9 and CXCL10 expression in tumor of MB49 tumor-bearing mice. Format: in vivo, mouse. The conditions noted are these: FIG. 10C-D.
For data set [3] the following is noted: patients, continuous daily dosing; cited from earlier work.

In the case of `COc1cc(C)[nH]c(=O)c1CNC(=O)c1c(C)n([C@H](C)C2CCN(CC(F)(F)F)CC2)c2ccccc12` [CPI-1205, N-[(4-methoxy-6-methyl-2-oxo-1H-pyridin-3-yl)methyl]-2-methyl-1-[(1R)-1-[1-(2,2,2-trifluoroethyl)piperidin-4-yl]ethyl]indole-3-carboxamide], the “proportion of tumor-infiltrating cytotoxic T cells” value in data set [1] (in vivo in the murine model (model not named)) was “enhanced”. For the same molecule, in data set [1] (model not named), the B cell abundance entry is given as “no difference” and the myeloid cells entry is on record as “effected certain subsets”. Moreover, in data set [2], the “CXCL9 expression in tumor” value is listed as “increased” and the “CXL10 expression in tumor” value was “increased”. For the same molecule, in data set [3], the dose-limiting toxicities result is reported as “no dose-limiting toxicities” and the tolerability result is recorded as “well tolerated”.
